The values below come from US20220238900A1, “All Natural Redox Flow Battery Utilizing Indigo Carmine And Derivatives Thereof” (Northeastern University, priority 2019, published 2022).

The nature of data set [1]: physchem. The text has this: FIG. 1A illustrates the natural source of the indigo dye. The most natural product from which indigo is obtained includes indican (genus indigofera plants) and isatan (woad plants or isatis tinctoria) in tropical and moderate climate zones, respectively.^[19] Irrespective of their source, the chemistry of the dye extraction involves soaking the leaves of the plants in water to facilitate the fermentation process, during which the indican readily undergoes enzymatic hydrolysis and releases indoxyl that converts to indigo by oxidation upon exposure to air. […] On the contrary, a high concentration of reactants in solution is the key to minimize the storage tank size while obtaining high specific volumetric energy density. Therefore, the design of an appropriate electrolyte for AORFB starts from identifying redox-active materials followed by optimization of the structure to achieve the maximum solubility to maximize the energy density. […] In IC-H, the substituted protons are attached to the strongly electronegative oxygen atoms and capable of forming strong hydrogen bondings. Hydrogen bondings are usually stronger than the Van Der Wall forces and dipole interactions.

Data set [2] in a line: Three-electrode half-cell cyclic voltammetry.
Protocol: Cyclic voltammetry experiments were performed using a Biologic SP150 potentiostat controlled by Biologic EC-Lab software.
The nature of data set [3]: Rotating disk electrode linear sweep voltammetry (Levich and Tafel analysis). The data set is classed as physicochemical. The source says:
Further, the log (i0) can also be represented as FACOk0, where k0 is the electron transfer rate constant.

Values after ≈ are worked out from the molar mass of the structure shown. Values joined by “and” are separate entries in the source; they are usually repeats but may differ in a detail not shown here. Equal entries are not always repeated.

As to `O=C1/C(=C2\Nc3ccc(S(=O)(=O)O)cc3C2=O)Nc2ccc(S(=O)(=O)O)cc21` [IC-H, 5,5′-indigodisulfonic acid], in data set [1], the aqueous solubility came out at 760 mM (≈ 321 mg/mL) and the improvement in solubility worked out at 22 folds. The “chemical stability on CV cycling” value in data set [2] (10,000 cycles at 40 mV s^−1) is recorded as “negligible decay”. The compound also came in with a redox peak separation in data set [2] (scan rates 5 mV s^−1 to 200 mV s^−1) of 40 mV. Further, the “electron transfer (reaction) rate constant” value in data set [3] (1 mM in 0.1 M HClO4, fitted Tafel plot) amounted to 0.000282 cm/s. Also, the diffusion coefficient in data set [3] (1 mM in 0.1 M HClO4, slope of Levich plot) was 2.232×10^−5 cm^2 s^−1 and 2.23×10^−5 cm^2 s^−1. The compound also showed an electron transfer rate constant k0 in data set [3] (LSV data at 2700 rpm, Tafel plot) of 0.000282 cm/s.
`CC1(C)CCCC(C)(C)N1[O]` [TEMPO, 2,2,6,6-tetramethylpiperidine-1-oxyl, reference compound]: the “redox potential (redox peaks)” value in data set [2] (acidic medium (0.1 M HClO4 where stated)) is on record as “around 0.75 V vs. Ag/AgCl”.
